Laboratory results from ChEMBL document CHEMBL1287709, “Trifluoromethylphenyl as P2 for ketoamide-based cathepsin S inhibitors” (Bioorg Med Chem Lett, 2010).

Tests used:
Cathepsin S [1] = molecular target: T1, Cathepsin S (Homo sapiens, UniProt P25774); assay: Inhibition of human cathepsin S by fluorescence assay
Cathepsin K = molecular target: T2, Cathepsin K (Homo sapiens, UniProt P43235); assay: Inhibition of human cathepsin K by fluorescence assay
T2 sequence (P43235 whole entry): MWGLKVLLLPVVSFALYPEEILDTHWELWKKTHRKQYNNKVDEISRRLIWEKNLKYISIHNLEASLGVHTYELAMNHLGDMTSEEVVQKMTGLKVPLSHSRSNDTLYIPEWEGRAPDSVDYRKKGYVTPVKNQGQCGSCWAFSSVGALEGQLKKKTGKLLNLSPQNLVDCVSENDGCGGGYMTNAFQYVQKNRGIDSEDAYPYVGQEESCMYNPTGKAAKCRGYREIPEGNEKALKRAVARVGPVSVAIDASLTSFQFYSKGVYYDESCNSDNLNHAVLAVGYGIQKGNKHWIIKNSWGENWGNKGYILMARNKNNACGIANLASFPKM

Cathepsin L2 = molecular target: T3, Cathepsin L2 (Homo sapiens, UniProt O60911); assay: Inhibition of human cathepsin V by fluorescence assay
T3 sequence (O60911 whole entry): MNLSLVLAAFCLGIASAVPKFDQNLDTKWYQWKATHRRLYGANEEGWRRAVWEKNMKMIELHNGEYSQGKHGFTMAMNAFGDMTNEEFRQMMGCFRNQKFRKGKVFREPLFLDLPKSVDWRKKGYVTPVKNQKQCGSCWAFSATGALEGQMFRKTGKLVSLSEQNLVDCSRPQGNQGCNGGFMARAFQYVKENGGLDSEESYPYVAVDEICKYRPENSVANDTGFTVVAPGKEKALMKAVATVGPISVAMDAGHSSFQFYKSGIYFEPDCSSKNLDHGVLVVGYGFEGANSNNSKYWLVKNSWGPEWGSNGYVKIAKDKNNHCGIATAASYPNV

Cathepsin B = Cathepsin B (Homo sapiens, UniProt P07858); assay: Inhibition of human cathepsin B by fluorescence assay
Cathepsin S [2] = molecular target: T1, Cathepsin S; assay: Inhibition of cathepsin S in human JY cells assessed as Lip10 accumulation by Western blotting; format: cell-based
Procathepsin L = Procathepsin L (Homo sapiens, UniProt P07711); assay: Inhibition of human cathepsin L by fluorescence assay
Sequence of Procathepsin L (P07711 whole entry): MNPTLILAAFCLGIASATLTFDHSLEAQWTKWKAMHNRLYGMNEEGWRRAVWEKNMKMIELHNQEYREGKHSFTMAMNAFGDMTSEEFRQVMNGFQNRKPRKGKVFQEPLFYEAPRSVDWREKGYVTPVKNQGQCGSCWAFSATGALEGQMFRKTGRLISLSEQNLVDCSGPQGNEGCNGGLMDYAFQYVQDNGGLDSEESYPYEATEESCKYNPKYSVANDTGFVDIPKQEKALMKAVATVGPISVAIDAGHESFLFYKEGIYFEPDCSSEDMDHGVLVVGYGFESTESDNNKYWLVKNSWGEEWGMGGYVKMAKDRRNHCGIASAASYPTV

T1 sequence (P25774 whole entry): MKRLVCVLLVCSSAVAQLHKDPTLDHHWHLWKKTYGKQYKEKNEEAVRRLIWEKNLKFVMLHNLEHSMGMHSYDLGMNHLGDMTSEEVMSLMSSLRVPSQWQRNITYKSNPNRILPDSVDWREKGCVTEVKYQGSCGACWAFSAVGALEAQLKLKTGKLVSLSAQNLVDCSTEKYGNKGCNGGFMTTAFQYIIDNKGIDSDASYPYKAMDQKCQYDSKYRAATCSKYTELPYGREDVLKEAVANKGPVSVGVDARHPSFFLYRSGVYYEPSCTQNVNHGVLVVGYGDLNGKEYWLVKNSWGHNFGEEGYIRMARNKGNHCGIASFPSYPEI

Compound | IC50 (Cathepsin S [1]) [nM] | IC50 (Cathepsin K) [nM] | IC50 (Cathepsin L2) [nM] | IC50 (Cathepsin B) [µM] | IC50 (Cathepsin S [2]) [nM] | IC50 (Procathepsin L) [nM]
N#CCNC(=O)c1cccc(C(F)(F)F)c1 | > 10000 | > 10000 |  |  |  | 
O=CCNC(=O)c1cccc(C(F)(F)F)c1 | > 10000 | > 10000 |  |  |  | 
CCC(C=O)NC(=O)c1cccc(C(F)(F)F)c1 (stereo not drawn) | 1070 |  |  |  |  | 
CCC(C=O)NC(=O)c1cccc(C(F)(F)F)c1Cl (stereo not drawn) | 31 | 32 |  |  |  | 
CCC(C=O)NC(=O)c1cccc(C(F)(F)F)c1F (stereo not drawn) | 36 |  |  |  |  | 
CCC(C=O)NC(=O)c1cccc(C(F)(F)F)c1C (stereo not drawn) | 18 |  |  |  |  | 
CC(C=O)NC(=O)c1cccc(C(F)(F)F)c1Cl (stereo not drawn) | 110 |  |  |  |  | 
CCC(C=O)NC(=O)c1cccc(C(F)(F)F)c1OC (stereo not drawn) | 692 |  |  |  |  | 
CC(NC(=O)c1cccc(C(F)(F)F)c1Cl)C(=O)C(N)=O (stereo not drawn) | 30.9 | 107 |  |  |  | 
CC(NC(=O)c1cccc(C(F)(F)F)c1Cl)C(=O)C(=O)Nc1cc[nH]n1 (stereo not drawn) | 14.1 | 51.3 |  |  |  | 
CNC(=O)C(=O)C(C)NC(=O)c1ccc(OCc2ccccn2)c(C(F)(F)F)c1Cl (stereo not drawn) | 19.5 | 46.8 | 1120 | > 10 |  | > 10000
CC(NC(=O)c1ccc(OCc2ccccn2)c(C(F)(F)F)c1Cl)C(=O)C(=O)N(C)C (stereo not drawn) | > 10000 | > 10000 | > 10000 | > 10 |  | > 10000

Molecules with a lower IC50 (Cathepsin S [1]), results first:

IC50 (Cathepsin S [1]) [nM] | IC50 (Cathepsin K) [nM] | IC50 (Cathepsin L2) [nM] | IC50 (Cathepsin B) [µM] | IC50 (Cathepsin S [2]) [nM] | IC50 (Procathepsin L) [nM] | Compound
11 | 195 |  |  |  |  | CCOc1ccc(C(=O)NC(C)C(=O)C(N)=O)c(Cl)c1C(F)(F)F (stereo not drawn)
10.5 | 26.3 |  |  |  |  | Cc1cc(NC(=O)C(=O)C(C)NC(=O)c2cccc(C(F)(F)F)c2Cl)[nH]n1 (stereo not drawn)
8.5 | 33.1 |  |  |  |  | CC(NC(=O)c1cccc(C(F)(F)F)c1Cl)C(=O)C(=O)Nc1ccn(C)n1 (stereo not drawn)
4.8 | 37.2 |  |  |  |  | CC(NC(=O)c1ccc(OCc2ccccn2)c(C(F)(F)F)c1Cl)C(=O)C(N)=O (stereo not drawn)
2.9 | 91.2 |  |  |  |  | CCOc1ccc(C(=O)NC(C)C(=O)C(=O)Nc2ccn[nH]2)c(Cl)c1C(F)(F)F (stereo not drawn)
2.3 | 11.7 | 29.5 | 5.75 | 1300 | 891 | CCC(NC(=O)c1cccc(C(F)(F)F)c1Cl)C(=O)C(=O)Nc1ccn[nH]1 (stereo not drawn)
2.3 | 11.5 |  |  |  |  | CC(C)C(NC(=O)c1ccc(OCc2ccccn2)c(C(F)(F)F)c1Cl)C(=O)C(=O)Nc1ccn(C)n1 (stereo not drawn)
1.9 | 47.9 |  |  |  |  | CCCCC(NC(=O)c1ccc(OCc2ccccn2)c(C(F)(F)F)c1Cl)C(=O)C(=O)Nc1ccn(C)n1 (stereo not drawn)
1.1 |  |  |  | 1920 |  | CCC(NC(=O)c1ccc(OCc2ccccn2)c(C(F)(F)F)c1Cl)C(=O)C(N)=O (stereo not drawn)
1.1 | 20.9 | 16.6 | 3.24 | 78 | 141 | CCC(NC(=O)c1ccc(OCc2ccccn2)c(C(F)(F)F)c1Cl)C(=O)C(=O)Nc1ccn(C)n1 (stereo not drawn)
1 | 12.9 | 36.3 | 15.1 |  | 479 | CC(NC(=O)c1ccc(OCc2ccccn2)c(C(F)(F)F)c1Cl)C(=O)C(=O)Nc1ccn(C)n1 (stereo not drawn)
